In patent publication US10745365B2, “Luminogenic and fluorogenic compounds and methods to detect molecules or conditions” (Promega Corporation, priority 2005, dated 2020):
One block for each molecule: values may come before it.

Assays:
Format in all cases: biochemical
beta-glucuronidase (GUS) = biological target: T1, beta-glucuronidase (GUS) (Homo sapiens, UniProt P08236); test: Beta-glucuronidase (GUS) assay
T1 construct: purchased Sigma-Aldrich
T1 sequence (P08236 23-651): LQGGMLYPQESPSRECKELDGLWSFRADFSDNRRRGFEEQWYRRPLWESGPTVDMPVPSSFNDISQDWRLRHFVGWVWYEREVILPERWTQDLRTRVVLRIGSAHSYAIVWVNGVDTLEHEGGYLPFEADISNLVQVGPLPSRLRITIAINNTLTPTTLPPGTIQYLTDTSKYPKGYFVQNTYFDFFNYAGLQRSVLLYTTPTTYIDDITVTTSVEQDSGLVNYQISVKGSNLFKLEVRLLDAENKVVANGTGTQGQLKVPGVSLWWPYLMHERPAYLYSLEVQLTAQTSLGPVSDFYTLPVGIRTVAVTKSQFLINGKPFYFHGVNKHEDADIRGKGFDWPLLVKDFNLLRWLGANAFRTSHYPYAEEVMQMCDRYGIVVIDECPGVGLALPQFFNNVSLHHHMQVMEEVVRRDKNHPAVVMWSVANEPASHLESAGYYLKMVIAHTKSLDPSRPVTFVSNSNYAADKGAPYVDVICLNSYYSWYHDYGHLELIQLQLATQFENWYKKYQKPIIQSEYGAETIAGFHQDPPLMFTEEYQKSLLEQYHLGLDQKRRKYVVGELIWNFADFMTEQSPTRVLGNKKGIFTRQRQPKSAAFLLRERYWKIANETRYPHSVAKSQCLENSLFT
Experimental: The source of the human enzyme was Sigma-Aldrich. GUS was incubated with the substrate in 50 mM MES, pH 6.3, for 15 minutes.

[1] = system: panel of recombinant human P450s; test: Two-step luminescent screen of luciferin derivatives against a panel of recombinant human P450s and HLM; settings: 50 μM substrate, panel of FIGS. 17-18
Experimental: P450s are Supersomes™ purchased from Discovery Labware (BD/Gentest). […] HLM is human liver microsomes.
1× substrate concentration: 50 μM.
The HLM reactions contained […] reaction, except where indicated otherwise. Control insect cell membranes were at 50 μg/50 μL.
For FIG. 20, the panel of human P450s was screened as described above.

[2] = biological target: T2, yeast alcohol dehydrogenase (Saccharomyces cerevisiae, UniProt P00330); test: Conversion of luciferol by yeast alcohol dehydrogenase; settings: room temperature
T2 construct: purchased Sigma Chem Co. A 7011
T2 sequence (P00330 1-348): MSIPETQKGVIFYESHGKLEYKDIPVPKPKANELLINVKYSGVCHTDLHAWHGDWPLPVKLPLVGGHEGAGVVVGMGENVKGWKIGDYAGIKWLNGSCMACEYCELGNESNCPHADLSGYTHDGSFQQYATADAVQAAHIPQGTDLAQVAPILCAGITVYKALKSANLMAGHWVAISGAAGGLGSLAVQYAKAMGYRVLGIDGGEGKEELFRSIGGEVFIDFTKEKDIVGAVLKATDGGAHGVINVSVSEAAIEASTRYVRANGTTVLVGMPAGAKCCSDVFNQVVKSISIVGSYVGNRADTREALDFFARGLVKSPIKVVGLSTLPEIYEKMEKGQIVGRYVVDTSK
Experimental: A luciferin derivative, luciferol, was employed as a substrate for alcohol dehydrogenase (ADH). The derivative was tested in a two step format. For the first step, the derivative was added to a mixture with one of four ADHs. At different times after the reaction was initiated, a portion was removed and mixed with a luciferase reaction mixture. Reactions in which light production increased over time indicate that luciferol is a substrate for the ADH in that reaction.
Y ADH solution: 7500 units of yeast alcohol dehydrogenase (Sigma Chem Co. A 7011) was dissolved in 1 ml of 50 mM Bis Tris pH 6.5.
NAD+ solution: 66 mg of NAD+(Sigma Chem. Co. N 1511-250) was dissolved in 2 ml of Bis Tris, pH 6.5 and 8 ml of water.
Luciferol solution: approximately 4 mg of luciferol was dissolved in 1 ml of dimethylformamide (Aldrich 27,054-7).
AU reactions were kept at room temperature.

signal-to-noise, fluorescence (beta-glucuronidase (GUS); [GUS] 4.3 ng/ml): 7.5
signal-to-noise, fluorescence (beta-glucuronidase (GUS); [GUS] 8.7 ng/ml): 15.6
signal-to-noise, fluorescence (beta-glucuronidase (GUS); [GUS] 34.7 ng/ml): 76.5
signal-to-noise, fluorescence (beta-glucuronidase (GUS); [GUS] 69.4 ng/ml): 164.6
signal-to-noise, fluorescence (beta-glucuronidase (GUS); [GUS] 138.8 ng/ml): 376.8
signal-to-noise, fluorescence (beta-glucuronidase (GUS); [GUS] 277.5 ng/ml): 861.4
SMILES: Cc1cc(=O)oc2cc(O[C@@H]3O[C@H](C(=O)O)[C@@H](O)[C@H](O)[C@H]3O)ccc12 [4-methylumbelliferyl glucuronide]

SMILES: Cc1cc(C)c(COc2ccc3nc(C4=N[C@@H](C(=O)O)CS4)sc3c2)c(C)c1 [6′(2,4,6-trimethylbenzyloxy)-luciferin]
P450 enzyme activity / selectivity (words) [1]: selective for three members of the CYP3A subfamily, CYP3A4, CYP3A5 and CYP3A7
P450 enzyme activity / selectivity (words) ([1]; listed as 6(2,4,6 trimethylbenzyl)-luciferin): showed substantial activity with CYP3A4 and did not show substantial cross reactivity with CYP4F12

SMILES: O=C(O)[C@H]1CSC(c2nc3ccc(OCc4ccccc4C(F)(F)F)cc3s2)=N1 [6′(o-trifluoromethylbenzyloxy)-luciferin]
P450 enzyme activity / selectivity (words) [1]: selective for three members of the CYP3A subfamily, CYP3A4, CYP3A5 and CYP3A7
P450 enzyme activity / selectivity (words) ([1]; listed as 6—O-trifluoromethylbenzyl luciferin): showed substantial activity with CYP3A4 and did not show substantial cross reactivity with CYP4F12

SMILES: O=C(O)[C@H]1CSC(c2nc3ccc(OCc4c(F)c(F)c(F)c(F)c4F)cc3s2)=N1 [6′-(2,3,4,5,6-pentafluorobenzyloxy)-luciferin]
P450 enzyme activity / selectivity (words) [1]: selective for three members of the CYP3A subfamily, CYP3A4, CYP3A5 and CYP3A7
P450 enzyme activity / selectivity (words) ([1]; listed as 6(2,3,4,5,6 pentafluorbenzyloxy)-luciferin): showed substantial activity with CYP3A4 and did not show substantial cross reactivity with CYP4F12

P450 enzyme activity / selectivity (words) [1]: showed selectivity for CYP3A7
SMILES: O=C(O)[C@H]1CSC(c2nc3ccc(OCSc4ccc(Cl)cc4)cc3s2)=N1 [6′-p-chlorophenylthiol-methoxy-luciferin, 6-(4-Chloro-phenylthiomethoxy)luciferin]

SMILES: O=C(O)[C@H]1CSC(c2ccc3cc(OCOCc4ccccc4)ccc3n2)=N1 [6′benzyloxymethoxy-quinolylluciferin]
P450 enzyme activity / selectivity (words) [1]: selective for three members of the CYP3A subfamily, CYP3A4, CYP3A5 and CYP3A7

SMILES: O=C(O)C1CSC(c2nc3ccc(OCc4cccc(CN5CCN(c6ccccc6)CC5)c4)cc3s2)=N1 (stereo not drawn) [Luciferin 3-(4-phenylpiperazin-1-yl)methylbenzyl ether]
P450 enzyme activity / selectivity (words) [1]: selective for three members of the CYP3A subfamily, CYP3A4, CYP3A5 and CYP3A7
P450 enzyme activity / selectivity (words) ([1]; listed as 6′(3-((4-phenylpiperizin-1-yl))methyl)benzyloxy) luciferin): did not cross react with 4F1 2

P450 enzyme activity / selectivity (words) [1]: strong selectivity for CYP1A1
SMILES: O=C(Nc1ccc2nc(C3=NC(C(=O)O)CS3)sc2c1)OCc1ccccc1 (stereo not drawn) [N-benzyloxycarbonyl aminoluciferin]

SMILES: CC(C)COC(=O)Nc1ccc2nc(C3=NC(C(=O)O)CS3)sc2c1 (stereo not drawn) [N-isobutoxycarbonyl aminoluciferin]
P450 enzyme activity / selectivity (words) [1]: strong selectivity for CYP1A1

P450 enzyme activity / selectivity (words) [1]: substrate for 4A11
SMILES: COc1ccc2cc(C3=N[C@@H](C(=O)O)CS3)ccc2c1 [Naphthylluciferin 6-methyl ether]

P450 enzyme activity / selectivity (words) [1]: preferred substrate for 1A2 and 4A1 1
P450 enzyme activity / selectivity (words) ([1]; listed as quinolyl luciferin-6-methyl ether): enhanced selectivity for CYP4A11
SMILES: COc1ccc2nc(C3=NC(C(=O)O)CS3)ccc2c1 (stereo not drawn) [Quinolylluciferin 6-methyl ether]

SMILES: COC(=O)[C@H]1CSC(c2nc3ccc(OC)cc3s2)=N1 [carboxyl ester of luciferin-ME, carboxyl methyl ester of luciferin-ME]
P450 enzyme activity / selectivity (words) [1]: reacted strongly with several other P450s including CYP2C19

SMILES: COC(=O)[C@H]1CSC(c2nc3ccccc3s2)=N1 [carboxyl methyl ester of deoxyluciferin]
P450 enzyme activity / selectivity (words) [1]: substantial activity with CYP2C19 and strong selectivity for this enzyme over the others tested

P450 enzyme activity / selectivity (words) [1]: preference for 2C19, 1A1 and 1A2
SMILES: O=C(OCc1cccnc1)[C@H]1CSC(c2nc3ccccc3s2)=N1 [carboxyl picolinyl ester of luciferin-H]

P450 enzyme activity / selectivity (words) [1]: extremely low activity with CYP2D6
SMILES: COc1ccc2nc(C3=N[C@@H](C(=O)O)CS3)sc2c1 [luciferin 6-methyl ether, reference compound]

SMILES: COc1ccc2nc(C3=N[C@@H](C(=O)NN)CS3)sc2c1 [luciferin-6-methylether hydrazide]
P450 enzyme activity / selectivity (words) [1]: good selectivity for CYP 1A2 over the other P450s tested

SMILES: OC[C@H]1CSC(c2nc3ccc(O)cc3s2)=N1 [luciferol]
Light produced ([2]; Rx 7: 5 μl yeast ADH, 30 minutes after luciferol addition): 6.184
Light produced ([2]; Rx 7: 5 μl yeast ADH, 60 minutes after luciferol addition): 6.052
Light produced ([2]; Rx 7: 5 μl yeast ADH, 95 minutes after luciferol addition): 5.980
Light produced ([2]; Rx 7: 5 μl yeast ADH, 190 minutes after luciferol addition): 6.640
Light produced ([2]; Rx 7: 5 μl yeast ADH, 280 minutes after luciferol addition): 7.988
Light produced ([2]; Rx 8: 10 μl yeast ADH, 30 minutes after luciferol addition): 6.126
Light produced ([2]; Rx 8: 10 μl yeast ADH, 60 minutes after luciferol addition): 5.468
Light produced ([2]; Rx 8: 10 μl yeast ADH, 95 minutes after luciferol addition): 5.552
Light produced ([2]; Rx 8: 10 μl yeast ADH, 190 minutes after luciferol addition): 6.198
Light produced ([2]; Rx 8: 10 μl yeast ADH, 280 minutes after luciferol addition): 6.903
Light produced ([2]; Rx 9: 20 μl yeast ADH, 30 minutes after luciferol addition): 5.406
Light produced ([2]; Rx 9: 20 μl yeast ADH, 60 minutes after luciferol addition): 5.608
Light produced ([2]; Rx 9: 20 μl yeast ADH, 95 minutes after luciferol addition): 6.301
Light produced ([2]; Rx 9: 20 μl yeast ADH, 190 minutes after luciferol addition): 5.825
Light produced ([2]; Rx 9: 20 μl yeast ADH, 280 minutes after luciferol addition): 6.734
Light produced ([2]; Rx 10: 20 μl yeast ADH, 10 μl luciferol, 30 minutes after luciferol addition): 9.672
Light produced ([2]; Rx 10: 20 μl yeast ADH, 10 μl luciferol, 60 minutes after luciferol addition): 9.531
Light produced ([2]; Rx 10: 20 μl yeast ADH, 10 μl luciferol, 95 minutes after luciferol addition): 10.00
Light produced ([2]; Rx 10: 20 μl yeast ADH, 10 μl luciferol, 190 minutes after luciferol addition): 10.36
Light produced ([2]; Rx 10: 20 μl yeast ADH, 10 μl luciferol, 280 minutes after luciferol addition): 11.71

SMILES: O=C(O)C1CSC(c2ccc3cc(OCc4ccccc4)ccc3n2)=N1 (stereo not drawn) [quinolylluciferin 6-benzyl ether]
P450 enzyme activity / selectivity (words) [1]: preferred substrate for 3A7, and to a lesser degree a substrate for 3A4 and 2C8

P450 enzyme activity / selectivity (words) [1]: substrate for 4A11
SMILES: COc1ccc2nc(C3=NC(C(=O)O)CS3)cnc2c1 (stereo not drawn) [quinoxalylluciferin 6-methyl ether]
